The numbers were not newly measured in patent publication US9867849B2, “Methods of treating or ameliorating skin conditions with a magnetic dipole stabilized solution” (REVEN PHARMACEUTICALS, INC., priority 2010, dated 2018), which cites them from elsewhere.

The conditions of data set [1]: rabbits.
Data set [2] deals with blast cell numbers in bone marrow and/or peripheral blood. The settings on record: of those receiving other medication concomitantly; 20-135 mg/day orally or 10-50 mg/day intravenously.
The conditions of data set [3]: more than 500 postmenopausal women; dietary intake.
For data set [4] the following is noted: 121 patients with hepatocellular carcinoma undergoing conventional therapy; 45 mg/day oral.
For data set [5] the following is noted: 241 osteoporotic women, 45 mg/day vitamin K2 and 150 mg elemental calcium, after two years.
The conditions of data set [6]: rats; 100 mg/kg body weight daily.
The conditions of data set [7]: higher intake of vitamin K2.

Structures are written as SMILES.

As to `CC(C)=CCC/C(C)=C/CC/C(C)=C/CC/C(C)=C/CC1=C(C)C(=O)c2ccccc2C1=O` [Vitamin K2], in data set [1] (1-10 mg/kg daily for 10 weeks), the “atherosclerotic plaque progression in the aorta and pulmonary arteries” value is given as “inhibited”. Besides, in data set [1] (compared to the control group), the “ester cholesterol deposition in the aorta” value is listed as “reduce”, the “factor X activity in plasma” value is recorded as “reduce”, the lipid peroxidation entry was “reduce” and the total cholesterol levels result is reported as “reduce”. The “patients in whom blast cell numbers in bone marrow and/or peripheral blood were reduced” value in data set [2] was about 71%. The “coronary calcification (association with intake)” value in data set [3] is “associated with the trend toward decreasing coronary calcification”. Further, the survival entry in data set [4] is reported as “significant increase in survival”. Further, the “lumbar bone mineral density” value in data set [5] was “maintain lumbar bone mineral density”. The fracture incidence in data set [5] (30% in the control group) is reported as 10%. Besides, in data set [6], the “increase in calcium in both kidneys and aorta induced by megadose of synthetic vitamin D” value is “inhibited”. Also, in data set [7], the “reduction of prostate cancer risk” value is listed as 35%.
